Experimental data reported in patent US20240383954A1, “PEPTIDE INHIBITORS OF INTERLEUKIN-23 RECEPTOR AND THEIR USE TO TREAT INFLAMMATORY DISEASES” (Janssen Biotech, Inc., priority 2020, published 2024).
Positions of bridges follow the written chain, without caps; N, C: chain ends. Non-standard residues stand in square brackets, D forms with d. Residues, ends and D or L forms follow the SMILES beside them. 2Nal = N[C@@H](Cc1ccc2ccccc2c1)C(=O)O; AEF = NCCOc1ccc(C[C@H](N)C(=O)O)cc1; αMeF = C[C@](N)(Cc1ccccc1)C(=O)O; Pen = CC(C)(S)[C@H](N)C(=O)O; αMeK = C[C@](N)(CCCCN)C(=O)O; Thp = NC1(C(=O)O)CCOCC1

Molecular target: IL-23R (Homo sapiens, UniProt Q5VWK5)
Sequence (Q5VWK5 24-629): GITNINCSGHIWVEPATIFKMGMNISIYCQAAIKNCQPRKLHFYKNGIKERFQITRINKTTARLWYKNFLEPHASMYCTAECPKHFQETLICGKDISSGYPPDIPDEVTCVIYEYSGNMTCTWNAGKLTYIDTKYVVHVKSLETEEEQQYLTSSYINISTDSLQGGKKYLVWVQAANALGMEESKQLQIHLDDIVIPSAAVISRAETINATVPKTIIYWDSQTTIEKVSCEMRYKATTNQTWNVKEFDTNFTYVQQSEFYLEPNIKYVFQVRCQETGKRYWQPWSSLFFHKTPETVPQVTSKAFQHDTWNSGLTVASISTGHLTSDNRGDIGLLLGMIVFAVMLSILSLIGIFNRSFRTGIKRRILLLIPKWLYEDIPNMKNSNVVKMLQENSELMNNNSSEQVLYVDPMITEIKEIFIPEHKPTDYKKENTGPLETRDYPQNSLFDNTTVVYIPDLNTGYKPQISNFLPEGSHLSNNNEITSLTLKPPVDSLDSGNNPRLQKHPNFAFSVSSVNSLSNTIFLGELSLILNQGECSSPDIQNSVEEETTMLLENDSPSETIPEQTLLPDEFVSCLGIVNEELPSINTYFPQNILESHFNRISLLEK
Experiment: cell-based
Settings: PBMC pSTAT3 IC50 (nM), PBMCs from healthy donors, IL-23 5 ng/mL, 30 minutes, phosphorylated STAT3
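Note: cryopreserved PBMCs stimulated at 37 °C in 5% CO2, then lysed, with phosphorylated STAT3 quantified in lysates using a phospho-STAT panel kit.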
Procedure: Cryopreserved peripheral blood mononuclear cells (PBMCs) from healthy donors were thawed and washed twice in ImmunoCult-XF T cell expansion medium (XF-TCEM) supplemented with CTL anti-aggregate wash. […] The cells were stimulated with cytokine for 30 minutes at 37° C. in 5% CO2, transferred onto ice for 10 minutes, and lysed. Cell lysates were stored at −80° C. until phosphorylated STAT3 was measured using the phospho-STAT panel kit (Meso Scale Discovery, K15202D).

Structure (SMILES) | IC50 [nM]
COc1ccc(C[C@H](NC(=O)[C@H](CC(N)=O)NC(=O)[C@](C)(CCC(=O)O)NC(=O)C2(NC(=O)[C@H](Cc3ccc4ccccc4c3)NC(=O)[C@H](Cc3ccc(OCCN)cc3)NC(=O)[C@@H]3CSCC[C@H](NC(=O)[C@@H](CCCNC(=N)N)NC(C)=O)C(=O)N[C@@H](CCC(N)=O)C(=O)N[C@@H]([C@@H](C)O)C(=O)N[C@@H](Cc4c[nH]c5ccccc45)C(=O)N[C@@H](CCC(N)=O)C(=O)N3)CCOCC2)C(N)=O)cc1OC [Compound 78, Ac-[(D)Arg]-[Abu]-Q-T-W-Q-[Cys]-Phe[4-(2-aminoethoxy)]-[2-Nal]-[THP]-[aMeGlu]-N-[Phe(3,4-diOMe)]-NH2] | 31
COc1ccc(C[C@@H](NC(=O)[C@H](CC(N)=O)NC(=O)[C@](C)(CCC(=O)O)NC(=O)C2(NC(=O)[C@H](Cc3ccc4ccccc4c3)NC(=O)[C@H](Cc3ccc(OCCN)cc3)NC(=O)[C@@H]3CSCC[C@H](NC(=O)[C@@H](CCCNC(=N)N)NC(C)=O)C(=O)N[C@@H](CCC(N)=O)C(=O)N[C@@H]([C@@H](C)O)C(=O)N[C@@H](Cc4c[nH]c5ccccc45)C(=O)N[C@@H](CCC(N)=O)C(=O)N3)CCOCC2)C(N)=O)cc1OC [Compound 79, Ac-[(D)Arg]-[Abu]-Q-T-W-Q-[Cys]-Phe[4-(2-aminoethoxy)]-[2-Nal]-[THP]-[aMeGlu]-N-[(D)Phe(3,4-diOMe)]-NH2] | 25
CC(=O)N[C@H](CCCNC(=N)N)C(=O)N[C@H]1CCSC[C@@H](C(=O)N[C@@H](Cc2ccc(OCCN)cc2)C(=O)N[C@@H](Cc2ccc3ccccc3c2)C(=O)NC2(C(=O)N[C@@H](CCC(=O)O)C(=O)N[C@@H](CC(N)=O)C(=O)N[C@@](C)(Cc3ccc4ccccc4c3)C(N)=O)CCOCC2)NC(=O)[C@H](CCC(N)=O)NC(=O)[C@H](Cc2c[nH]c3ccccc23)NC(=O)[C@H]([C@@H](C)O)NC(=O)[C@H](CCC(N)=O)NC1=O [Compound 80, Ac-[(D)Arg]-[Abu]-Q-T-W-Q-[Cys]-Phe[4-(2-aminoethoxy)]-[2-Nal]-[THP]-E-N-[aMe(2-Nal)]-NH2] | 46
CC(=O)N[C@H](CCCNC(=N)N)C(=O)N[C@H]1CCSC[C@@H](C(=O)N[C@@H](Cc2ccc(OCCN)cc2)C(=O)N[C@@H](Cc2ccc3ccccc3c2)C(=O)NC2(C(=O)N[C@@](C)(CCC(=O)O)C(=O)N[C@@H](CC(N)=O)C(=O)N[C@@H](Cc3c[nH]c4ccc(F)cc34)C(N)=O)CCOCC2)NC(=O)[C@H](CCC(N)=O)NC(=O)[C@H](Cc2c[nH]c3ccccc23)NC(=O)[C@H]([C@@H](C)O)NC(=O)[C@H](CCC(N)=O)NC1=O [Compound 81, Ac-[(D)Arg]-[Abu]-Q-T-W-Q-[Cys]-Phe[4-(2-aminoethoxy)]-[2-Nal]-[THP]-[aMeGlu]-N-[W(5-F)]-NH2] | 30
CC(=O)NCCCC[C@@H]1NC(=O)[C@H](Cc2c[nH]c3ccccc23)NC(=O)[C@H]([C@@H](C)O)NC(=O)[C@H](CCC(N)=O)NC(=O)[C@@H](NC(C)=O)C(C)(C)SSC(C)(C)[C@@H](C(=O)N[C@@H](Cc2ccc(OCCN)cc2)C(=O)N[C@@H](Cc2ccc3ccccc3c2)C(=O)N[C@@](C)(CCCCN)C(=O)N[C@@H](CCCCNC(C)=O)C(=O)N[C@@H](CC(N)=O)C(=O)N[C@@](C)(Cc2ccccc2)C(N)=O)NC1=O [Compound 82, Ac-[Pen]-Q-T-W-[Lys(Ac)]-[Pen]-Phe[4-(2-aminoethoxy)]-[2-Nal]-[a-MeLys]-[Lys(Ac)]-N-[a-MePhe]-NH2] (Ac-[Pen]QTWK(Ac)[Pen][AEF][2Nal][αMeK]K(Ac)N[αMeF]-NH2; disulfide 1-6) | 54
CC(=O)NCCCC[C@@H]1NC(=O)[C@H](Cc2c[nH]c3ccccc23)NC(=O)[C@H]([C@@H](C)O)NC(=O)[C@H](CCC(N)=O)NC(=O)[C@@H](NC(C)=O)C(C)(C)SSC(C)(C)[C@@H](C(=O)N[C@@H](Cc2ccc(OCCN)cc2)C(=O)N[C@@H](Cc2ccc3ccccc3c2)C(=O)N[C@@](C)(CCCCN)C(=O)N[C@@H](CCCCNC(C)=O)C(=O)N[C@@H](CC(N)=O)C(=O)NC2(C(N)=O)CCOCC2)NC1=O [Compound 84, Ac-[Pen]-Q-T-W-[Lys(Ac)]-[Pen]-Phe[4-(2-aminoethoxy)]-[2-Nal]-[a-MeLys]-[Lys(Ac)]-N-[THP]-NH2] (Ac-[Pen]QTWK(Ac)[Pen][AEF][2Nal][αMeK]K(Ac)N[Thp]-NH2; disulfide 1-6) | 54
